Results reported in patent US9278958B2, “Anti-cancer compounds” (KATHOLIEKE UNIVERSITEIT LEUVEN, priority 2012, dated 2016).
Where two headings read alike, the source gives them in different places.

Assays:
BPH-1 (UZ) = test: Cytostatic assay, BPH-1 (UZ); type: cell-based; details: Homo sapiens, Table 4
Procedure, shortened: (§1)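 Read-out is the cell number after incubation, counted electronically (Coulter). Cultures started from 5-7.5×10^4 cells per well exposed to compound, kept 48 h to 96 h at 37° C under humidified CO2 control.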

[1] = tested on: Raji, human B-lymphoma cells; test: Cytostatic assay, Raji; type: cell-based; details: Table 2
Procedure, shortened: as §1

[2] = tested on: FM3A mammary carcinoma cells; test: Cytostatic assay, FM3A; type: cell-based, murine; details: Mus musculus, Table 3
Procedure, shortened: as §1

[3] = tested on: HEL embryonic lung fibroblast cells; test: Cytostatic assay, HEL; type: cell-based; details: Homo sapiens, Table 3
Procedure, shortened: as §1

[4] = tested on: HeLa cervix carcinoma cells; test: Cytostatic assay, HeLa; type: cell-based, human; details: Homo sapiens; Table 3; read-out: Cytostatic activity (μM) Hela
Procedure, shortened: as §1

PLC/PRF/5 hepatoma cells = test: Cytostatic assay, PLC/PRF/5; type: cell-based; details: Homo sapiens, Table 4
Procedure, shortened: as §1

[5] = tested on: U87 CD4+/CXCR4+/CCR5+ glioma cells; test: Cytostatic assay, U87 CD4+/CXCR4+/CCR5+; type: cell-based; details: Homo sapiens, Glioma cell; Table 3
Description: (§2) To each well of a 96-well microtiter plate were added 5-7.5×10^4 cells and a given amount of the test compound. The cells were allowed to proliferate for 48 h to 96 h (depending on the nature of the cell line) at 37° C. in a humidified CO2-controlled atmosphere. At the end of the incubation period, the cells were counted in a Coulter Counter (Coulter Electronics Ltd, Harpenden Herts, United Kingdom).

[6] = tested on: PC3 (rega) prostate cancer cells; test: Cytostatic assay, PC3 (rega); type: cell-based; details: Table 4
Procedure, shortened: as §1

[7] = tested on: OST TK- osteosarcoma cells; test: Cytostatic assay, OST TK-; type: cell-based; details: Homo sapiens; Table 3
Procedure, shortened: as §1

[8] = tested on: 293T embryonic kidney cells; test: Cytostatic assay, 293T; type: cell-based; details: Homo sapiens, HEK-293T; Table 3
Procedure, shortened: as §1

[9] = tested on: protein synthesis in Raji cells; test: Antimetabolic activity assay, [4,5-3H]leucine incorporation (protein synthesis), Raji; type: cell-based; details: Homo sapiens, incorporation into TCA-insoluble material
Description: [The procedure below names another cell line; the source lists this cell line under the same test.] (§3) Radiolabeled precursors of DNA synthesis ([^3H-methyl]dThd), RNA synthesis ([5-^3H]Urd), and protein synthesis ([4,5-^3H]leu) were added to 10^5 CEM cell cultures in the 200 μl-wells of a microtiter plate at 1 μCi for each precursor in the presence of varying concentrations of the test compounds (5-fold dilution series). The cells were allowed to proliferate for 20 hrs at 37° C. in a humidified, CO2-controlled atmosphere. At the end of the incubation period, the contents of the wells were brought onto 25-mm glass fiber filters and further processed for measurement of acid-insoluble radioactivity.

U87 glioma cells = test: Cytostatic assay, U87; type: cell-based; details: Homo sapiens, U-87 MG; Table 3
Procedure, shortened: as §1

[10] = tested on: Caki-2 kidney carcinoma cells; test: Cytostatic assay, Caki-2; type: cell-based; details: Homo sapiens, Table 3
Procedure, shortened: as §1

L1210 cells = test: Cytostatic assay, L1210; type: cell-based; details: Mus musculus, Table 2
Procedure, shortened: as §1

Sup T1 cells = test: Cytostatic assay, Sup T1; type: cell-based; details: Homo sapiens, Table 2, read-out: Cytostatic activity (μM) Sup T 1
Procedure, shortened: as §1

[11] = tested on: HOS CD4+ osteosarcoma cells; test: Cytostatic assay, HOS CD4+; type: cell-based; details: Homo sapiens; Table 3
Description: as §2

[12] = tested on: U937, human monocytic cells; test: Cytostatic assay, U937; type: cell-based; details: U-937, Table 2
Procedure, shortened: as §1

[13] = tested on: RNA synthesis in CEM cells; test: Antimetabolic activity assay, [5-3H]uridine incorporation (RNA synthesis), CEM; type: cell-based; details: Homo sapiens, CCRF-CEM, incorporation into TCA-insoluble material
Description: as §3

[14] = tested on: RNA synthesis in Raji cells; test: Antimetabolic activity assay, [5-3H]uridine incorporation (RNA synthesis), Raji; type: cell-based; details: Homo sapiens, incorporation into TCA-insoluble material
Description: [The procedure below names another cell line; the source lists this cell line under the same test.] as §3

HepG2C3A hepatoma cells = test: Cytostatic assay, HepG2C3A; type: cell-based; details: Homo sapiens, HepG2/C3A; Table 4
Procedure, shortened: as §1

Huh-7 hepatoma cells = test: Cytostatic assay, Huh-7; type: cell-based; details: Homo sapiens, Table 4
Procedure, shortened: as §1

[15] = tested on: MCF-7 mammary carcinoma cells; test: Cytostatic assay, MCF-7; type: cell-based; details: Homo sapiens, MCF7; Table 3
Procedure, shortened: as §1

[16] = tested on: Caki-1 kidney carcinoma cells; test: Cytostatic assay, Caki-1; type: cell-based; details: Homo sapiens, Table 3
Procedure, shortened: as §1

HUT-78 cells = test: Cytostatic assay, HUT-78; type: cell-based; details: Homo sapiens, HuT78; Table 2
Procedure, shortened: as §1

MT-2 cells = test: Cytostatic assay, MT-2; type: cell-based; details: Homo sapiens, MT2; Table 2
Procedure, shortened: as §1

[17] = tested on: protein synthesis in CEM cells; test: Antimetabolic activity assay, [4,5-3H]leucine incorporation (protein synthesis), CEM; type: cell-based; details: Homo sapiens, CCRF-CEM, incorporation into TCA-insoluble material
Description: as §3

[18] = tested on: THP-1, human monocytic cells; test: Cytostatic assay, THP-1; type: cell-based; details: Table 2
Procedure, shortened: as §1

Molt4/C8 cells = test: Cytostatic assay, Molt4/C8; type: cell-based; details: Table 2
Procedure, shortened: as §1

[19] = tested on: DNA synthesis in CEM cells; test: Antimetabolic activity assay, [CH3-3H]dThd incorporation (DNA synthesis), CEM; type: cell-based; details: Homo sapiens, CCRF-CEM, incorporation into TCA-insoluble material
Description: as §3

[20] = tested on: LNCaP (UZ) prostate cancer cells; test: Cytostatic assay, LNCaP (UZ); type: cell-based; details: Homo sapiens, Table 4
Procedure, shortened: as §1

[21] = tested on: 22Rv1 (UZ) prostate cancer cells; test: Cytostatic assay, 22Rv1 (UZ); type: cell-based; details: Homo sapiens, Table 4
Procedure, shortened: as §1

[22] = tested on: BAEC aortic endothelial cells; test: Cytostatic assay, BAEC; type: cell-based, bovine; details: Bos taurus, Table 3
Procedure, shortened: as §1

[23] = tested on: HL60, human leukemia cells; test: Cytostatic assay, HL-60; type: cell-based; details: Table 2
Procedure, shortened: as §1

MT-4 cells = test: Cytostatic assay, MT-4; type: cell-based; details: Homo sapiens, MT4; Table 2
Procedure, shortened: as §1

[24] = tested on: HT29 colorectal carcinoma cells; test: Cytostatic assay, HT29; type: cell-based; details: Homo sapiens, HT-29; Table 3
Procedure, shortened: as §1

[25] = tested on: PC-3 (UZ) prostate cancer cells; test: Cytostatic assay, PC-3 (UZ); type: cell-based; details: Table 4
Procedure, shortened: as §1

[26] = tested on: DNA synthesis in Raji cells; test: Antimetabolic activity assay, [CH3-3H]dThd incorporation (DNA synthesis), Raji; type: cell-based; details: Homo sapiens, incorporation into TCA-insoluble material
Description: [The procedure below names another cell line; the source lists this cell line under the same test.] as §3

[27] = tested on: Daudi, human B-lymphoma cells; test: Cytostatic assay, Daudi; type: cell-based; details: Table 2
Description: as §2

C8166 cells = test: Cytostatic assay, C8166; type: cell-based; details: Homo sapiens, Table 2
Procedure, shortened: as §1

[28] = tested on: broad variety of tumor cell lines; test: Cytostatic assays, summary over the panel of cell lines (Tables 2-4); type: cell-based
Description: as §2

CEM cells = test: Cytostatic assay, CEM; type: cell-based; details: Homo sapiens, CCRF-CEM
Procedure, shortened: as §1

[29] = tested on: DU145 (UZ) prostate cancer cells; test: Cytostatic assay, DU145 (UZ); type: cell-based; details: Homo sapiens, DU-145; Table 4
Procedure, shortened: as §1

[30] = tested on: PNT1A (UZ) prostate cells; test: Cytostatic assay, PNT1A (UZ); type: cell-based; details: Homo sapiens, Table 4
Procedure, shortened: as §1

[31] = Homo sapiens, HuT78, range for the seven compounds, MT-4 and HUT-78 cells, read-out: IC50 range, cytostatic activity against MT-4 and HUT-78 cells
[32] = range for the seven compounds against the 5 tumor cell lines, read-out: IC50 range, cytostatic activity against CEM, Molt4/C8, Sup T1, MT-2 and C8166 cells
[33] = Table 1a, read-out: IC50 μM (CEM)
[34] = Table 2, read-out: Cytostatic activity (μM) CEM

COC(=O)c1cc(CCc2ccccc2)sc1N [TR575, 2-Amino-5-phenethyl-thiophene-3-carboxylic acid methyl ester]
IC50 (BPH-1 (UZ)): 52 ± 1.4 µM
IC50 [1]: 50 ± 3.5 µM
IC50 [2]: 67 ± 18 µM
IC50 [3]: 38 ± 12 µM
IC50 [4]: 38 ± 2.8 µM
IC50 (PLC/PRF/5 hepatoma cells): 44 ± 2.1 µM
IC50 [5]: 73 ± 3.5 µM
IC50 [6]: 0.24 ± 0.19 µM
IC50 [7]: 9.8 ± 7.4 µM
IC50 [8]: 45 ± 16 µM
IC50 [9]: 84 ± 6 µM
IC50 (U87 glioma cells): 50 ± 3.5 µM
IC50 [10]: 43 ± 4.2 µM
IC50 (L1210 cells): 25 µM
IC50 (Sup T1 cells): 1.1 ± 0.73 µM
IC50 [11]: 48 ± 1.4 µM
IC50 [12]: 46 ± 7.1 µM
IC50 [13]: 0.96 ± 0.37 µM
IC50 [14]: > 100 µM
IC50 (HepG2C3A hepatoma cells): 10 ± 5.2 µM
IC50 (Huh-7 hepatoma cells): 1.7 ± 0.21 µM
IC50 [15]: 36 ± 9.2 µM
IC50 [16]: 6.5 ± 3.5 µM
IC50 (HUT-78 cells): 36 ± 13 µM
IC50 (MT-2 cells): 0.79 ± 0.092 µM
IC50 [17]: 0.61 ± 0.04 µM
IC50 [18]: 38 ± 6.4 µM
IC50 (Molt4/C8 cells): 1.2 ± 0.6 µM
IC50 [19]: 3.1 ± 1 µM
IC50 [20]: 0.35 ± 0.014 µM
IC50 [21]: 9.1 ± 0.35 µM
IC50 [22]: 26 ± 4.2 µM
IC50 [23]: 5.7 ± 7.2 µM
IC50 (MT-4 cells): 27 ± 0.71 µM
IC50 [24]: 41 ± 2.8 µM
IC50 [25]: 0.51 ± 0.064 µM
IC50 [26]: ≥ 100 µM
IC50 [27]: 38 ± 2.1 µM
IC50 (C8166 cells): 2.2 µM
IC50 [28, 31]: 8.5 to 60 µM
IC50 [28, 32]: 0.22 to 3.4 µM
IC50 (CEM cells; [33]): 1.5 µM
IC50 (CEM cells; [34]): 1.5 ± 1.3 µM
IC50 [29]: 5.4 ± 0.96 µM
IC50 [30]: 39 ± 3.5 µM

COC(=O)c1cc(CCc2ccsc2)sc1N [TR595, 2-Amino-5-(2-thiophen-3-yl-ethyl)-thiophene-3-carboxylic acid methyl ester]
IC50 (BPH-1 (UZ)): 46 ± 4.9 µM
IC50 [1]: 46 ± 1.4 µM
IC50 [2]: 50 ± 2.8 µM
IC50 [3]: 30 ± 13 µM
IC50 [4]: 36 ± 7 µM
IC50 (PLC/PRF/5 hepatoma cells): 28 ± 2.8 µM
IC50 [5]: 51 ± 4.9 µM
IC50 [6]: 0.25 ± 0.27 µM
IC50 [7]: 8.2 ± 6.9 µM
IC50 [8]: 44 ± 5.7 µM
IC50 [9]: 43 ± 7 µM
IC50 (U87 glioma cells): 51 ± 2.1 µM
IC50 [10]: 45 ± 7.1 µM
IC50 (L1210 cells): 41 ± 2 µM
IC50 (Sup T1 cells): 1.3 ± 0.21 µM
IC50 [11]: 50 ± 12 µM
IC50 [12]: 42 ± 3.5 µM
IC50 [13]: 1.9 ± 0.7 µM
IC50 [14]: 27 ± 14 µM
IC50 (HepG2C3A hepatoma cells): 8.1 ± 0.71 µM
IC50 (Huh-7 hepatoma cells): 1.3 ± 0.28 µM
IC50 [15]: 25 ± 11 µM
IC50 [16]: 2.3 ± 0.14 µM
IC50 (HUT-78 cells): 38 ± 8.5 µM
IC50 (MT-2 cells): 0.57 ± 0.078 µM
IC50 [17]: 0.66 ± 0.13 µM
IC50 [18]: 41 ± 2.8 µM
IC50 (Molt4/C8 cells): 0.56 ± 0.57 µM
IC50 [19]: 3.2 ± 1.2 µM
IC50 [20]: 0.38 ± 0.1 µM
IC50 [21]: 22 ± 9.2 µM
IC50 [22]: 27 ± 7.1 µM
IC50 [23]: 6.1 ± 8.6 µM
IC50 (MT-4 cells): 30 ± 4.9 µM
IC50 [24]: 30 ± 5.7 µM
IC50 [25]: 0.6 ± 0.071 µM
IC50 [26]: 39 ± 33 µM
IC50 [27]: 37 ± 3.5 µM
IC50 (C8166 cells): 2.2 ± 0.35 µM
IC50 [28, 31]: 8.5 to 60 µM
IC50 [28, 32]: 0.22 to 3.4 µM
IC50 (CEM cells; [33]): 1.7 µM
IC50 (CEM cells; [34]): 1.7 ± 1.1 µM
IC50 [29]: 15 ± 8.5 µM
IC50 [30]: 40 ± 7.1 µM
